Assay [1] concerns the target T1, MMP-1 (Homo sapiens, UniProt P03956).
T1 construct: made in house; host or cells: MMP-1-transfected HT-1080 cells (spent media)
T1 sequence (P03956 100-469): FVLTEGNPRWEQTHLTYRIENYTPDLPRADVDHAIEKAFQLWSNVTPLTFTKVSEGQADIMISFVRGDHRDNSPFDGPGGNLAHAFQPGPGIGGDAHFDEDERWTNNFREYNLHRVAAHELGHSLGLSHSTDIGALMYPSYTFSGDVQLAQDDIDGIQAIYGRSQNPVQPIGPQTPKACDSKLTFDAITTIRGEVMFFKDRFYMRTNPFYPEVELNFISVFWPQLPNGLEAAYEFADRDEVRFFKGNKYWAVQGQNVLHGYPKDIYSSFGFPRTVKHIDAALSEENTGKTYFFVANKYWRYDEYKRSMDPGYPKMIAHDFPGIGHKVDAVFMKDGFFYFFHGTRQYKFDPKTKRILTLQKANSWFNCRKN
The assay is described as follows: In vitro MMP inhibition, IC50 determination (fluorogenic substrate I). Type of assay: biochemical. As to conditions: value in parentheses; read-out: MMP-1 (IC-50). As for the experimental part: Several hydroxamic acids and salts thereof were analyzed in in vitro assays to determine their ability to inhibit the MMP cleavage of peptide substrates. […] and IC50 constants were calculated from the assayed hydroxamic acid-MMP interactions. Human recombinant MMP-1, MMP-2, MMP-9, MMP-13, and MMP-14 were used in this assay. All enzymes were prepared in Assignee's laboratories following usual laboratory procedures. Protocols for the preparation and use of these enzymes are available in the scientific literature. See, e.g., Enzyme Nomenclature (Academic Press, San Diego, Calif., 1992) (and the citations therein). See also, Freije et al., “Molecular cloning and expression of collagenase-3, a novel human matrix metalloproteinase produced by breast carcinomas,” J Biol. Chem., 269(24), 16766-16773 (1994). The MMP-1 proenzyme was purified from the spent media of MMP-1-transfected HT-1080 cells provided by Dr. Harold Welgus of Washington University (St. Louis, Mo.). The protein was purified on a zinc chelating column. All MMPs were activated using 4-aminophenylmercuric acetate (“APMA”, Sigma Chemical, St. Louis, Mo.) or trypsin. MMP-9 also was activated using human recombinant MMP-3 (purified in Assignee's laboratory following standard cloning and purification techniques). […] Substrate (I) was purchased from Baychem (Redwood City, Calif.), and substrate II was prepared Assignee's laboratory. Substrate I was used in the IC50 determination assays, while substrate II was used in the Ki determination assays. In the absence of MMP inhibitory activity, either substrate is cleaved at the Gly-Leu peptide bond. […] The stock solutions of the assayed hydroxamic acids (or salts thereof) were prepared in 1% dimethyl sulfoxide (DMSO). […] The experiment controls contained the same amount of Buffer A/DMSO as the assayed sample, but contained no hydroxamic acid (or salt thereof). The assays from which the IC50 determinations were made were performed as follows. […] Louis, Mo.). The assayed hydroxamic acid samples were incubated in MicrofluorTM White Plates (Dynatech, Chantilly, Va.) and analyzed on a Perkin Elmer […] plate reader (Norwalk, Conn.). The excitation wavelength was 328 nm, and the emission wavelength-415 nm. […] As stated in the previous paragraph, samples containing varying concentrations of the same assayed hydroxamic acid were prepared. Inhibition was measured as a reduction in fluorescent intensity as a function of MMP inhibitor concentration. […] All values in Table 2 are given in nM units. The IC50 measurements are in parenthesis.

In assay [2] the target is T2, MMP-9 (Homo sapiens, UniProt P14780).
T2 construct: made in house; host or cells: MMP-9-transfected HT1080 cells (spent media)
Described as above. Type of assay: biochemical. The following applies: value in parentheses; read-out: MMP-9 (IC-50). As to the method: Several hydroxamic acids and salts thereof were analyzed in in vitro assays to determine their ability to inhibit the MMP cleavage of peptide substrates. […] and IC50 constants were calculated from the assayed hydroxamic acid-MMP interactions. Human recombinant MMP-1, MMP-2, MMP-9, MMP-13, and MMP-14 were used in this assay. All enzymes were prepared in Assignee's laboratories following usual laboratory procedures. Protocols for the preparation and use of these enzymes are available in the scientific literature. See, e.g., Enzyme Nomenclature (Academic Press, San Diego, Calif., 1992) (and the citations therein). See also, Freije et al., “Molecular cloning and expression of collagenase-3, a novel human matrix metalloproteinase produced by breast carcinomas,” J Biol. Chem., 269(24), 16766-16773 (1994). The MMP-9 proenzyme was purified by gelatin Sepharose chromatography from spent media of MMP-9-transfected HT1080 cells provided by Dr. Howard Welgus of Washington University (St. Louis, Mo.). All MMPs were activated using 4-aminophenylmercuric acetate (“APMA”, Sigma Chemical, St. Louis, Mo.) or trypsin. MMP-9 also was activated using human recombinant MMP-3 (purified in Assignee's laboratory following standard cloning and purification techniques). […] Substrate (I) was purchased from Baychem (Redwood City, Calif.), and substrate II was prepared Assignee's laboratory. Substrate I was used in the IC50 determination assays, while substrate II was used in the Ki determination assays. In the absence of MMP inhibitory activity, either substrate is cleaved at the Gly-Leu peptide bond. […] The stock solutions of the assayed hydroxamic acids (or salts thereof) were prepared in 1% dimethyl sulfoxide (DMSO). […] The experiment controls contained the same amount of Buffer A/DMSO as the assayed sample, but contained no hydroxamic acid (or salt thereof). The assays from which the IC50 determinations were made were performed as follows. […] Louis, Mo.). The assayed hydroxamic acid samples were incubated in MicrofluorTM White Plates (Dynatech, Chantilly, Va.) and analyzed on a Perkin Elmer […] plate reader (Norwalk, Conn.). The excitation wavelength was 328 nm, and the emission wavelength-415 nm. […] As stated in the previous paragraph, samples containing varying concentrations of the same assayed hydroxamic acid were prepared. Inhibition was measured as a reduction in fluorescent intensity as a function of MMP inhibitor concentration. […] All values in Table 2 are given in nM units. The IC50 measurements are in parenthesis.

T2 sequence (P14780 107-707 limits assumed): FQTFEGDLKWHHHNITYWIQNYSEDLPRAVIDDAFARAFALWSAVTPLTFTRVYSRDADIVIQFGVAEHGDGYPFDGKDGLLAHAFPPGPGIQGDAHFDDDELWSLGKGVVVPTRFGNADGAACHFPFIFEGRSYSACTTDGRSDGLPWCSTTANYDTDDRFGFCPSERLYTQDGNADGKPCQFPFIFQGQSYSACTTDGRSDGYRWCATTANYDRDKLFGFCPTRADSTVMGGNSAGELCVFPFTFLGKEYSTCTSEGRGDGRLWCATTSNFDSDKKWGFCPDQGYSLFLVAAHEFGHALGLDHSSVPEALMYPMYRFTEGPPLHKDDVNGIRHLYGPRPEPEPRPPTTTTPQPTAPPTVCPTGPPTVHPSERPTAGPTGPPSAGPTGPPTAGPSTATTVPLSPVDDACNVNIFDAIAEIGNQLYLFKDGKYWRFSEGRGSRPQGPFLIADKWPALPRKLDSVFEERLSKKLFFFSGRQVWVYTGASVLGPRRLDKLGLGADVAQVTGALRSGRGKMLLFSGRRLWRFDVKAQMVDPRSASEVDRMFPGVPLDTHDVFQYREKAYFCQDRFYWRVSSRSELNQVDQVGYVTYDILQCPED

`CCCCOc1ccc(N2CCN(S(=O)(=O)C3(C(=O)NO)CCN(c4ccc(C)cc4)CC3)CC2)cc1` [Example 295]: the IC50 in assay [1] was over 10000 nM; in assay [2], 0.1 nM.
Taken in the same sequence, the figures for `CCCCOc1ccc(N2CCN(S(=O)(=O)C3(C(=O)NO)CCN(c4ccc(C)cc4)CC3)CC2)cc1F` [Example 296] were over 10000 nM and 116 nM.
Taken in the same sequence, the figures for `COCCOc1ccc(N2CCN(S(=O)(=O)C3(C(=O)NO)CCN(C4CC4)CC3)CC2)cc1F` [Example 297] were over 10000 nM and 31.1 nM.
Taken in the same sequence, the figures for `CCCCOc1ccc(N2CCN(S(=O)(=O)C3(C(=O)NO)CCN(CC4CC4)CC3)CC2)cc1` [Example 298] were over 10000 nM and 3 nM.
With `CCCCOc1ccc(N2CCN(S(=O)(=O)C3(C(=O)NO)CCN(C4CC4)CC3)CC2)cc1` [Example 301], the values for the IC50 in assay [1] and in assay [2] were over 10000 nM and 0.6 nM, respectively.
`C#CCN1CCC(C(=O)NO)(S(=O)(=O)N2CCN(c3ccc(OCCCC)cc3)CC2)CC1` [Example 303]: the figures for the IC50 in assay [1] and in assay [2] were over 10000 nM and 0.3 nM, respectively.
